Reference: ChEMBL document CHEMBL1201862, “PubChem BioAssay data set” (2004)
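96-well plates; 48 h exposure; 5 concentrations. Endpoints by linear interpolation between flanking doses. Not reached: highest tested concentration assigned. GI50: concentration for 50% inhibition of growth.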 Activity calls are given as the source filed them. No stated cut-off is given here; in the data, active = GI50 up to about 1.1 µM and inactive = higher.

Legend:
Assay in all cases: inhibition of tumour cell growth, NCI panel, 48 h
[1] = test system: SK-MEL-2
[2] = test system: SW-620
[3] = test system: A498
[4] = test system: HL-60
[5] = test system: KM12
[6] = test system: CCRF-CEM
[7] = test system: M19-MEL
[8] = test system: SF-295
[9] = test system: HOP-92
[10] = test system: HT-29
[11] = test system: K562
[12] = test system: UACC-62
[13] = test system: COLO 205
[14] = test system: SNB-75
[15] = test system: SNB-19
[16] = test system: SK-MEL-5
[17] = test system: OVCAR-5
[18] = test system: LOX IMVI

## N/C(=N\O)N/N=C/c1ccc(C(F)(F)F)cc1
[1]
  GI50: 18.2 µM (inactive)
[2]
  GI50: 31 µM (inactive)
[3]
  GI50: 17.1 µM (inactive)
[4]
  GI50: 10.9 µM (inactive)
[5]
  GI50: 13.1 µM (inactive)
[6]
  GI50: 9.68 µM (inactive)
[7]
  GI50: 35.2 µM (inactive)
[8]
  GI50: 26 µM (inactive)
[9]
  GI50: 18.4 µM (inactive)
[10]
  GI50: 17.9 µM (inactive)
[11]
  GI50: 16.9 µM (inactive)
[12]
  GI50: 4.66 µM (inactive)
[13]
  GI50: 17.9 µM (inactive)
[14]
  GI50: 26.7 µM (inactive)

## NC1=C(Br)C(=O)c2ncccc2C1=O
[1]
  GI50: 0.346 µM (active)
[15]
  GI50: 1.25 µM (inactive)
[2]
  GI50: 0.466 µM (active)
[16]
  GI50: 0.284 µM (active)
[3]
  GI50: 3.72 µM (inactive)
[4]
  GI50: 0.505 µM (active)
[5]
  GI50: 1.12 µM (active)
[6]
  GI50: 1.4 µM (inactive)
[7]
  GI50: 0.159 µM (active)
[8]
  GI50: 0.367 µM (active)
[9]
  GI50: 1.45 µM (inactive)
[17]
  GI50: 1.95 µM (inactive)
[10]
  GI50: 1.69 µM (inactive)
[11]
  GI50: 0.277 µM (active)
[12]
  GI50: 0.232 µM (active)
[13]
  GI50: 1.71 µM (inactive)
[14]
  GI50: 0.183 µM (active)
[18]
  GI50: 0.137 µM (active)

## C[N+](C)(C)Cc1c(CC#N)[nH]c2ccccc12
[1]
  GI50: > 100 µM (inactive)
[15]
  GI50: > 100 µM (inactive)
[2]
  GI50: > 100 µM (inactive)
[16]
  GI50: > 100 µM (inactive)
[3]
  GI50: > 100 µM (inactive)
[4]
  GI50: 36.9 µM (inactive)
[5]
  GI50: > 100 µM (inactive)
[6]
  GI50: 35.4 µM (inactive)
[7]
  GI50: > 100 µM (inactive)
[8]
  GI50: > 100 µM (inactive)
[17]
  GI50: > 100 µM (inactive)
[10]
  GI50: > 100 µM (inactive)
[11]
  GI50: 25.8 µM (inactive)
[12]
  GI50: > 100 µM (inactive)
[13]
  GI50: > 100 µM (inactive)
[14]
  GI50: 96.2 µM (inactive)
[18]
  GI50: > 100 µM (inactive)

## COC1OC(CO)C(O)C(O)C1Br (stereo not drawn)
[15]
  GI50: > 100 µM (inactive)
[2]
  GI50: > 100 µM (inactive)
[16]
  GI50: > 100 µM (inactive)
[3]
  GI50: > 100 µM (inactive)
[4]
  GI50: > 100 µM (inactive)
[5]
  GI50: > 100 µM (inactive)
[6]
  GI50: > 100 µM (inactive)
[7]
  GI50: > 100 µM (inactive)
[8]
  GI50: > 100 µM (inactive)
[9]
  GI50: > 100 µM (inactive)
[17]
  GI50: > 100 µM (inactive)
[10]
  GI50: > 100 µM (inactive)
[11]
  GI50: > 100 µM (inactive)
[12]
  GI50: > 100 µM (inactive)
[13]
  GI50: > 100 µM (inactive)
[18]
  GI50: > 100 µM (inactive)

## NC(=O)CCC(NC(=O)Cc1ccccc1)C(=O)O.NC(CCC(=O)NC(=O)Cc1ccccc1)C(=O)O (stereo not drawn)
[1]
  GI50: > 8130 µM (inactive)
[15]
  GI50: > 8130 µM (inactive)
[2]
  GI50: > 8130 µM (inactive)
[16]
  GI50: > 8130 µM (inactive)
[3]
  GI50: > 8130 µM (inactive)
[4]
  GI50: > 8130 µM (inactive)
[5]
  GI50: > 8130 µM (inactive)
[6]
  GI50: > 8130 µM (inactive)
[7]
  GI50: > 8130 µM (inactive)
[8]
  GI50: > 8130 µM (inactive)
[9]
  GI50: > 8130 µM (inactive)
[17]
  GI50: > 8130 µM (inactive)
[10]
  GI50: > 8130 µM (inactive)
[11]
  GI50: > 8130 µM (inactive)
[12]
  GI50: > 8130 µM (inactive)
[13]
  GI50: > 8130 µM (inactive)
[14]
  GI50: 1080 µM (inactive)

## Cn1c(C2CC(C)(C)c3c2c2ccccc2n3C)cc2ccccc21 (stereo not drawn)
[1]
  GI50: > 304 µM (inactive)
[15]
  GI50: > 304 µM (inactive)
[2]
  GI50: > 304 µM (inactive)
[16]
  GI50: > 304 µM (inactive)
[4]
  GI50: > 304 µM (inactive)
[5]
  GI50: > 304 µM (inactive)
[6]
  GI50: > 304 µM (inactive)
[7]
  GI50: > 304 µM (inactive)
[8]
  GI50: 195 µM (inactive)
[9]
  GI50: 40.9 µM (inactive)
[17]
  GI50: > 304 µM (inactive)
[10]
  GI50: > 304 µM (inactive)
[11]
  GI50: > 304 µM (inactive)
[12]
  GI50: > 304 µM (inactive)
[13]
  GI50: > 304 µM (inactive)
[18]
  GI50: > 304 µM (inactive)

## CN(C)CCNC(=O)C1COc2cc(-c3cc(=O)c4ccccc4o3)ccc2O1 (stereo not drawn)
[15]
  GI50: 23.1 µM (inactive)
[2]
  GI50: 18.2 µM (inactive)
[16]
  GI50: 15.2 µM (inactive)
[3]
  GI50: 19 µM (inactive)
[4]
  GI50: 23.9 µM (inactive)
[6]
  GI50: 30.4 µM (inactive)
[7]
  GI50: > 100 µM (inactive)
[8]
  GI50: 28.4 µM (inactive)
[9]
  GI50: > 100 µM (inactive)
[17]
  GI50: 29.6 µM (inactive)
[10]
  GI50: 16.9 µM (inactive)
[11]
  GI50: 36.7 µM (inactive)
[12]
  GI50: 18.8 µM (inactive)
[13]
  GI50: 16.6 µM (inactive)
[14]
  GI50: 17.8 µM (inactive)
[18]
  GI50: 19.6 µM (inactive)

## O=Cc1cn(S(=O)(=O)c2ccccc2)c2ccccc12
[15]
  GI50: 54.2 µM (inactive)
[2]
  GI50: 35.5 µM (inactive)
[3]
  GI50: > 100 µM (inactive)
[4]
  GI50: 16.7 µM (inactive)
[5]
  GI50: 86.5 µM (inactive)
[6]
  GI50: 23.3 µM (inactive)
[7]
  GI50: 37.5 µM (inactive)
[8]
  GI50: 48.3 µM (inactive)
[17]
  GI50: > 100 µM (inactive)
[10]
  GI50: 55.5 µM (inactive)
[11]
  GI50: 19.9 µM (inactive)
[12]
  GI50: 26.9 µM (inactive)
[14]
  GI50: 26.2 µM (inactive)
[18]
  GI50: 20.6 µM (inactive)
